# Patent US20110028455A1, “Indole-substituted 3-cyanopyridines As Kinase Inhibitors” (Wyeth LLC, priority 2007, published 2011)
# Where two headings read alike, the source gives them in different places.
# Experiments:
# [1] = Metabolic stability in rat liver microsomes; format: in vitro ADME; conditions: 30 minutes incubation, remaining compound by HPLC
# Procedure: In order to probe the metabolic stability of the compounds of the invention, a series of compounds were selected for stability testing in rat liver microsomes. A DMSO solution of each compound was incubated for 30 minutes in the presence of rat liver homogenate. The percentage of remaining compound was assessed by HPLC. An approximate half life was calculated from the percentage of remaining compound. Table II, below, illustrates a comparison of the in vitro microsomal half life of the selected compounds verses a series of related compounds lacking the C-6 alkyl group. […] It is generally accepted in the industry that improved in vitro metabolic stability frequently translates into improved in vivo metabolic stability. Improved metabolic stability may translate to increased in vivo exposure levels.
# [2] = target: T1, human PKCθ full length enzyme (Homo sapiens, UniProt Q04759); test: PKCθ IMAP Assay; format: biochemical; conditions: PKCθ 1 nM; ATP 6 μM; peptide 100 nM; DMSO 5%; 25 minutes at room temperature; FP readout; read-out: PKC-Theta Mean IC50
# T1 construct: human PKCθ full length enzyme (Panvera Cat# P2996); purchased Panvera P2996
# T1 sequence (Q04759 whole entry): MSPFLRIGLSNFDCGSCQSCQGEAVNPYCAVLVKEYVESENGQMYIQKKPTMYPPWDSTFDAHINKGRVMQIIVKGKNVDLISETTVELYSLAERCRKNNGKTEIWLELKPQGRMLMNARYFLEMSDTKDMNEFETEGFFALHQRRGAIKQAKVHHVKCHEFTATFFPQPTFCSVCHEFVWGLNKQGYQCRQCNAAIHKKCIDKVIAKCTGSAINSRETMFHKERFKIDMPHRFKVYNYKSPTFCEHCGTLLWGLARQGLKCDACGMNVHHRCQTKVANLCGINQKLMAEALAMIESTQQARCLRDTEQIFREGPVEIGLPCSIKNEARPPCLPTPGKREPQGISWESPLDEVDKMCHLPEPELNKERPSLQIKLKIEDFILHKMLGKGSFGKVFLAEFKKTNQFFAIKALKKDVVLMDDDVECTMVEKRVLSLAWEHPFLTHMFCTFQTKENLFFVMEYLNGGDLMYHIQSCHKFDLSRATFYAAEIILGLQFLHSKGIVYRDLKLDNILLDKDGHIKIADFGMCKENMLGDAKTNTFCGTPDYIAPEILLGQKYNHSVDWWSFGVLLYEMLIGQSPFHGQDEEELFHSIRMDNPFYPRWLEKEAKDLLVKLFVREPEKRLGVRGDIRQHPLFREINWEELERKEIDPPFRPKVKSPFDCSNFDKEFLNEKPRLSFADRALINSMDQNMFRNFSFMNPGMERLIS
# Procedure: The materials used include the following: human PKCθ full length enzyme (Panvera Cat# P2996); substrate peptide: 5FAM-RFARKGSLRQKNV-OH (Molecular Devices, RP7032); ATP (Sigma Cat # A2383); DTT (Pierce, 20291); 5× kinase reaction buffer (Molecular Devices, R7209); 5× binding buffer A (Molecular Devices, R7282), 5× binding buffer B (Molecular Devices, R7209); IMAP Beads (Molecular Devices, R7284); and 384-well plates (Corning Costar, 3710).
# The reaction buffer was prepared by diluting the 5× stock reaction buffer and adding DTT to obtain a concentration of 3.0 mM. The binding buffer was prepared by diluting the 5× binding buffer A. A master mix solution was prepared using a 90% dilution of the reaction buffer containing 2×ATP (12 uM) and 2× peptide (200 nm). Compounds were diluted in DMSO to 20× of the maximum concentration for the IC50 measurement. 27 μl of the master mix solution for each IC50 curve was added to the first column in a 384-well plate and 3 μl of 20× compound in DMSO was added to each well.
# The final concentration of compound was 2× and 10% DMSO. DMSO was added to the rest of the master mix to increase the concentration to 10%. 10 μl of the master mix containing 10% DMSO was added to the rest of the wells on the plate except the 2nd column. 20 μl was transferred from the first column to the 2nd column. The compounds were serially diluted in 2:1 ratio starting from the 2nd column. A 2×(2 nM) PKCθ solution was made in the reaction buffer. 10 μl of the PKCθ solution was added to every well to achieve these final concentrations: PKCθ-1 nM; ATP-6 μM; peptide-100 nM; DMSO-5%. Samples were incubated for 25 minutes at room temperature. The binding reagent was prepared by diluting the beads in 1× binding buffer to 800:1. 50 μl of the binding reagent was added to every well and incubated for 20 minutes. FP was measured using Envision2100 (PerkinElmer Life Sciences). Wells with no ATP and wells with no enzyme were used as controls.
# [3] = related compounds lacking the C-6 alkyl group, read-out: Rat Microsome Stability of 6-H cyanopyridine Compounds (approximate half life)
# [4] = 6-Me compounds of the invention, read-out: Rat Microsome Stability of 6-Me cyanopyridine Compounds (approximate half life)
Compound,"half-life [1, 3] [min]",IC50 [2] [nM],further results
Cc1c(Nc2c(C#N)cncc2-c2ccc(OCCN3CCC(N4CCOCC4)CC3)cc2)ccc2[nH]ccc12,10,–,–
Cc1c(Nc2c(C#N)cncc2-c2ccc(OCCN3CCC(c4ccccc4)CC3)cc2)ccc2[nH]ccc12,5,–,–
Cc1c(Nc2c(C#N)cncc2-c2ccc(OCCNCc3ccccn3)cc2)ccc2[nH]ccc12,3,–,–
Cc1c(Nc2c(C#N)cncc2-c2ccc(OCCNCCCn3ccnc3)cc2)ccc2[nH]ccc12,22,–,–
Cc1c(Nc2c(C#N)cncc2-c2ccc(OCCNCc3ccccc3)cc2)ccc2[nH]ccc12,6,–,–
Cc1c(Nc2c(C#N)cncc2-c2ccc(OCCN3CCN(CCN(C)C)CC3)cc2)ccc2[nH]ccc12,> 30,–,–
Cc1c(Nc2c(C#N)cncc2-c2ccc(OCCN3CCN(CCO)CC3)cc2)ccc2[nH]ccc12,11,–,–
CCN1CCN(CCOc2ccc(-c3cncc(C#N)c3Nc3ccc4[nH]ccc4c3C)cc2)CC1,8,–,–
Cc1c(Nc2c(C#N)cncc2-c2ccc(OCCN3CCC(N4CCCC4)CC3)cc2)ccc2[nH]ccc12,> 30,–,–
Cc1c(Nc2c(C#N)cncc2-c2ccc(OCCN3CCOCC3)cc2)ccc2[nH]ccc12,8,–,–
Cc1c(Nc2c(C#N)cncc2-c2ccc(OCCNC3CCN(C)CC3)cc2)ccc2[nH]ccc12,> 30,–,–
Cc1c(Nc2c(C#N)cncc2-c2ccc(OCCNCC3CCN(C)CC3)cc2)ccc2[nH]ccc12,> 30,–,–
Cc1c(Nc2c(C#N)cncc2-c2ccc(OCCN3CCCC3)cc2)ccc2[nH]ccc12,21,–,–
Cc1c(Nc2c(C#N)cncc2-c2ccc(OCCN3CCN(C)CC3)cc2)ccc2[nH]ccc12,14,–,–
CCOCCNCCOc1ccc(-c2cncc(C#N)c2Nc2ccc3[nH]ccc3c2C)cc1,7,–,–
5-{4-[2-(4-cyclopentylpiperazin-1-yl)ethoxy]phenyl}-6-methyl-4-[(4-methyl-1H-indol-5-yl)amino]nicotinonitrile [Example 37],–,30,Rat Microsome Stability of 6-Me cyanopyridine Compounds (approximate half life) ([1]; 6-Me compounds of the invention): >30 min
"CCOCCNCCOc1ccc(-c2c(C)ncc(C#N)c2Nc2ccc3[nH]ccc3c2C)cc1 [Example 19, 5-(4-{2-[(2-ethoxyethyl)amino]ethoxy}phenyl)-6-methyl-4-[(4-methyl-1H-indol-5-yl)amino]nicotinonitrile]",–,46,"half-life [1, 4]: > 30 min"
"Cc1ncc(C#N)c(Nc2ccc3[nH]ccc3c2C)c1-c1ccc(OCCN2CCCC2)cc1 [Example 20, 6-methyl-4-[(4-methyl-1H-indol-5-yl)amino]-5-[4-(2-pyrrolidin-1-ylethoxy)phenyl]nicotinonitrile]",–,25,"half-life [1, 4]: > 30 min"
"Cc1ncc(C#N)c(Nc2ccc3[nH]ccc3c2C)c1-c1ccc(OCCNC2CCN(C)CC2)cc1 [Example 22, 6-methyl-4-[(4-methyl-1H-indol-5-yl)amino]-5-(4-{2-[(1-methylpiperidin-4-yl)amino]ethoxy}phenyl)nicotinonitrile]",–,9,"half-life [1, 4]: > 30 min"
"Cc1ncc(C#N)c(Nc2ccc3[nH]ccc3c2C)c1-c1ccc(OCCNCC2CCN(C)CC2)cc1 [Example 23, 6-methyl-4-[(4-methyl-1H-indol-5-yl)amino]-5-[4-(2-{[(1-methylpiperidin-4-yl)methyl]amino}ethoxy)phenyl]nicotinonitrile]",–,8,"half-life [1, 4]: > 30 min"
"Cc1ncc(C#N)c(Nc2ccc3[nH]ccc3c2C)c1-c1ccc(OCCN2CCC(c3ccccc3)CC2)cc1 [Example 29, 6-methyl-4-[(4-methyl-1H-indol-5-yl)amino]-5-{4-[2-(4-phenylpiperidin-1-yl)ethoxy]phenyl}nicotinonitrile]",–,272,"half-life [1, 4]: 20 min"
"Cc1ncc(C#N)c(Nc2ccc3[nH]ccc3c2C)c1-c1ccc(OCCN2CCOCC2)cc1 [Example 30, 6-methyl-4-[(4-methyl-1H-indol-5-yl)amino]-5-[4-(2-morpholin-4-ylethoxy)phenyl]nicotinonitrile]",–,124,"half-life [1, 4]: 17 min"
